Results taken from patent US20200346047A1, “METHOD AND KIT FOR HOME CONTROLLED OVARIAN STIMULATION FOR IN VITRO FERTILIZATION” (priority 2019, published 2020).
Values joined by “and” are separate entries in the source; they are usually repeats but may differ in a detail not shown here. Equal values may be shown once. Square brackets hold non-standard residues; d marks the D form. Peptide text beside a SMILES is read from it. d(hArg(Et2)) = CCN=C(NCC)NCCCC[C@@H](N)C(=O)O; hArg(Et2) = CCN=C(NCC)NCCCC[C@H](N)C(=O)O; dPhe(4-Cl) = N[C@H](Cc1ccc(Cl)cc1)C(=O)O; d2Nal = N[C@H](Cc1ccc2ccccc2c1)C(=O)O; d3Pal = N[C@H](Cc1cccnc1)C(=O)O

Columns and labels:
LH blood hormone level [1] = assay: LH blood level under conventional GnRH antagonist injection protocol (Example 1); format: in vivo, female patients
Experimental: Five female patients were treated with a GnRH antagonist protocol requiring injections of medications.
One patient, patient no. 1, was injected with 150 Units of FSH on days 3 to 12; half a syringe of 150 mcg/0.5 mL of ganirelix acetate on days 11 and 12; and 50 mg of clomiphene citrate on days 3 to 12; and 2.5 mg of letrozole on days 3 to 7. Luteinizing hormone (LH) blood level was 4.3 mIU/mL on day 10 and dropped to 2 mIU/mL on day 12.
A second patient, patient no. 2, was injected with 75 Units of FSH on days 4 to 12 and 150 Units on day 13; half a syringe of 150 mcg/0.5 mL of ganirelix acetate on days 11 to 13; 50 mg of clomiphene citrate on days 10 to 12, and 2.5 mg of letrozole on days 3 to 7. Luteinizing hormone (LH) blood level was 12.0 mIU/mL on day 11 and dropped to 6.3 mIU/mL on day 13.
Three patients, numbered 3 to 5, were injected with 75, 150 and 225 Units of FSH, respectively, on days 4 to 12 and one third a syringe of 150 mcg/0.5 mL of ganirelix acetate on days 11 to 13. Patient no. 3 received 50 mg of clomiphene citrate on days 4 to 12, and 2.5 mg of letrozole on days 4 to 8. Patient no. 4 received 100 mg of clomiphene citrate and 2.5 mg of letrozole on days 4 to 8, and 50 mg of clomiphene citrate on days 9 to 11. Patient no. 5 received no clomiphene citrate or letrozole. Luteinizing hormone (LH) blood level was 12.0, 18.0 and 14.6 mIU/mL, respectively, on day 10 and dropped to 4.9, 16.0 and 14.1 mIU/mL, respectively, on day 12.
Table 2 below provides a comparison of the efficacy of conventional Ganirelex/Cetrotide injectables treatment for IVF in the five representative patients from Example 1 with the home controlled ovarian hyperstimulation method described herein in the five representative patients from Example 2.

LH blood hormone level [2] = assay: LH blood level under home controlled ovarian hyperstimulation method with vaginal elagolix (Example 2); format: in vivo, female patients; settings: lower dose of elagolix taken as a vaginal suppository instead of orally
Experimental: On day 9 of the menstrual cycle, the patient is directed to orally take 50 to 150 mg, preferably 100 mg, (one, two, or three 50 mg oral tablets) of clomiphene citrate and to either insert vaginally or take orally, depending on the patient's preference, a gonadotropin-releasing hormone (GnRH) antagonist such as elagolix (marketed as ORILISSA®), instead of the expensive injections of ganirelix acetate (GANIRELEX®) or cetrorelix acetate (marketed as CETROTIDE®) used routinely in conventional practices. A dose of 25 mg (⅛^th of a pill) up to 200 mg of elagolix (1 full pill), preferably 25 mg, will be used, with the dose being the same whether inserted vaginally or taken orally. Elagolix is a GnRH antagonist that is conventionally used in the treatment of pain associated with endometriosis in women, not for the treatment of infertility. By blocking the GnRH receptor, elagolix suppresses LH release by the pituitary gland and thus prevents LH surge. Ultimately, elagolix suppresses gonadal steroid production, thereby reducing circulating levels of sex hormones such as progesterone, estradiol, and testosterone. Elagolix is generally an oral medication (oral tablet), however in the present method, elagolix is a tablet taken mainly as a vaginal suppository, but may be taken orally based on the patient's preference. […]

Row | Structure (SMILES) | LH blood hormone level AFTER medication intake (LH blood hormone level [1]; Example 1, one value per patient (patients 1-5), after ganirelix injections, listed as Conventional Ganielex/Cetrotide Injectables) | LH blood hormone level BEFORE medication intake (LH blood hormone level [1]; Example 1, one value per patient (patients 1-5), before ganirelix injections, listed as Conventional Ganielex/Cetrotide Injectables) | % Drop in blood LH hormone level (LH blood hormone level [1]; Example 1, one value per patient (patients 1-5), listed as Conventional Ganielex/Cetrotide Injectables) | Luteinizing hormone (LH) blood level (LH blood hormone level [1]; patient no. 1, day 10, half a syringe of 150 mcg/0.5 mL ganirelix acetate on days 11 and 12) | drop in LH blood hormone levels (LH blood hormone level [1]; patient no. 1, day 10 to day 12) | Luteinizing hormone (LH) blood level (LH blood hormone level [1]; patient no. 1, day 12, half a syringe of 150 mcg/0.5 mL ganirelix acetate on days 11 and 12) | Luteinizing hormone (LH) blood level (LH blood hormone level [1]; patient no. 2, day 11, half a syringe of 150 mcg/0.5 mL ganirelix acetate on days 11 to 13) | drop in LH blood hormone levels (LH blood hormone level [1]; patient no. 2, day 11 to day 13) | Luteinizing hormone (LH) blood level (LH blood hormone level [1]; patient no. 2, day 13, half a syringe of 150 mcg/0.5 mL ganirelix acetate on days 11 to 13) | Luteinizing hormone (LH) blood level (LH blood hormone level [1]; patient no. 3, day 10, one third a syringe of 150 mcg/0.5 mL ganirelix acetate on days 11 to 13) | drop in LH blood hormone levels (LH blood hormone level [1]; patient no. 3, day 10 to day 12) | Luteinizing hormone (LH) blood level (LH blood hormone level [1]; patient no. 3, day 12, one third a syringe of 150 mcg/0.5 mL ganirelix acetate on days 11 to 13) | Luteinizing hormone (LH) blood level (LH blood hormone level [1]; patient no. 4, day 10, one third a syringe of 150 mcg/0.5 mL ganirelix acetate on days 11 to 13) | drop in LH blood hormone levels (LH blood hormone level [1]; patient no. 4, day 10 to day 12) | Luteinizing hormone (LH) blood level (LH blood hormone level [1]; patient no. 4, day 12, one third a syringe of 150 mcg/0.5 mL ganirelix acetate on days 11 to 13) | Luteinizing hormone (LH) blood level (LH blood hormone level [1]; patient no. 5, day 10, one third a syringe of 150 mcg/0.5 mL ganirelix acetate on days 11 to 13, no clomiphene citrate or letrozole) | drop in LH blood hormone levels (LH blood hormone level [1]; patient no. 5, day 10 to day 12) | Luteinizing hormone (LH) blood level (LH blood hormone level [1]; patient no. 5, day 12, one third a syringe of 150 mcg/0.5 mL ganirelix acetate on days 11 to 13, no clomiphene citrate or letrozole) | effectiveness as GnRH antagonist in the patients (LH blood hormone level [2])
1 | CCN=C(NCC)NCCCC[C@H](NC(=O)[C@H](CC(C)C)NC(=O)[C@@H](CCCCNC(=NCC)NCC)NC(=O)[C@H](Cc1ccc(O)cc1)NC(=O)[C@H](CO)NC(=O)[C@@H](Cc1cccnc1)NC(=O)[C@@H](Cc1ccc(Cl)cc1)NC(=O)[C@@H](Cc1ccc2ccccc2c1)NC(C)=O)C(=O)N1CCC[C@H]1C(=O)N[C@H](C)C(N)=O [Ganirelex, ganirelix acetate] (Ac-[d2Nal][dPhe(4-Cl)][d3Pal]SY[d(hArg(Et2))]L[hArg(Et2)]P[dA]-NH2) | 2.0 mIU/mL and 6.3 mIU/mL and 4.9 mIU/mL and 16.0 mIU/mL | 4.3 mIU/mL and 12.0 mIU/mL (2×) and 18.0 mIU/mL | 3.4% | 4.3 mIU/mL | 53.5% | 2 mIU/mL | 12.0 mIU/mL | 47.5% | 6.3 mIU/mL | 12.0 mIU/mL | 59.25% | 4.9 mIU/mL | 18.0 mIU/mL | 11.1% | 16.0 mIU/mL | 14.6 mIU/mL | 3.4% | 14.1 mIU/mL | 
2 | COc1cccc(-c2c(C)n(Cc3c(F)cccc3C(F)(F)F)c(=O)n(C[C@H](NCCCC(=O)O)c3ccccc3)c2=O)c1F [elagolix] |  |  |  |  |  |  |  |  |  |  |  |  |  |  |  |  |  |  | effective GnRH antagonist
